Reference: patent US20050137130A1, “Medical treatment” (priority 2001, published 2005)

What was measured:
[1] = test system: activated human CD4+ T cells; test: Cytokine production (ELISA) by human CD4+ T cells stimulated with anti-CD3/CD28 beads and Delta1 beads, with added soluble protein; type: cell-based; details: increasing amounts of soluble protein in culture medium, 3 days
Method: M450 Streptavidin Dynabead™ magnetic beads (Dynal, USA) were coated with an anti-human-IgG4 biotinylated monoclonal antibody (BD Bioscience, 555879) by rotating them in the presence of the antibody for 30 minutes at room temperature. Beads were washed three times with PBS (1 ml). They were further incubated with hDelta1-hIgG4 (see Example 1 above) for 2 hours at room temperature and then washed three times with PBS (1 ml).
Human peripheral blood mononuclear cells (PBMC) were purified from blood using Ficoll-Paque separation medium (Pharmacia). Briefly, 28 ml of blood were overlaid on 21 ml of Ficoll-Paque separation medium and centrifuged at 18-20° C. for 40 minutes at 400 g. PBMC were recovered from the interface and washed 3 times before use for CD4+ T cell purification.
The CD4+ T cells were incubated in triplicates in a 96-well-plate (flat bottom) at 10^5 CD4/well/200 μl in RPMI medium containing 10% FCS, glutamine, penicillin, streptomycin and β2-mercaptoethanol.
Cytokine production was induced by stimulating the cells with anti-CD3/CD28 T cell expander beads from Dynal at a 1:1 ratio (bead/cell) in the presence of beads coated with hDelta1-IgG4Fc fusion protein (Example 1 above) at a 5:1 ratio (beads/cell). In some wells, increasing amounts of soluble hdelta1-IgG4Fc fusion protein were also added.
(§1) The supernatants were removed after 3 days of incubation at 37° C./5% CO2/humidified atmosphere and cytokine production was evaluated by ELISA using Pharmingen kits OptEIA Set human IL10 (catalog No. 555157), OptEIA Set human IL-5 (catalog No. 555202) for IL-10 and IL-5 respectively according to the manufacturer's instructions.
Human peripheral blood mononuclear cells (PBMC) were purified from blood using Ficoll-Paque separation medium (Pharmacia). […]
as §1, with “(Catalog” for “(catalog”, “instructions. […]” for “instructions.”

[2] = test system: Notch signalling in CHO-N2 (N27#11) cells expressing full length human Notch2; test: Antagonist assay of Notch signalling from Delta-coated Dynabeads (N27#11 luciferase reporter); type: cell-based; details: soluble protein, N27#11 reporter cells; for inhibition of Notch signalling from Delta beads compared to control: IgG4Fc as control
Method: Fc tagged Notch signalling modulators were immobilised on Streptavidin-Dynabeads (CELLection Biotin Binder Dynabeads [Cat. No. 115.21] at 4.0×10^8 beads/ml from Dynal (UK) Ltd; “beads”) in combination with biotinylated α-IgG-4 (clone JDC14 at 0.5 mg/ml from Pharmingen [Cat. No. 555879]) as follows:
A volume of Dynabeads beads corresponding to the total number required was removed from a stock of beads at 4.0×10^8 beads/ml. This was washed twice with 1 ml of PBS, and resuspended in a final volume of 100 μl of PBS containing a biotinylated anti-IgG4 antibody (clone JDC14 at 0.5 mg/ml from Pharmingen [Cat. No. 555879]) in a sterile Eppendorf tube and placed on shaker at room temperature for 30 minutes. The amount of biotinylated anti-IgG4 antibody needed to coat the beads was calculated relative to the fact that 1×10^7 streptavidin Dynabeads bind a maximum of 2 μg of antibody.
After coating the beads with antibody they were washed 3 times with 1 ml of PBS and finally resuspended in mDelta1-IgG4Fc protein diluted in PBS. Beads were coated in a solution of […] protein (usually 5 μg of mDelta1-IgG4Fc protein was added per 10^7 beads to be coated) and the ligand was allowed to bind to the beads in a 1 ml volume for 2 h at room temperature (or 4° C. overnight) on a rotary shaker to keep the beads in suspension. […]
To set up the bead antagonist assay, N27#11 cells (T80 flask) were removed using 0.02% EDTA solution (Sigma), spun down and resuspended in 10 ml DMEM plus 10%(HI) FCS plus glutamine plus P/S. Ten μl of cells were counted and the cell density was adjusted to 2.0×10^5 cells/ml with fresh DMEM plus 10%(HI) FCS plus glutamine plus P/S. The reporter cells were plated out at 100 μl per well of a 96-well plate (i.e. 2×10^4 cells per well) and were placed in an incubator to settle down for at least 30 minutes. […]
The following day 150 μl of supernatant was then removed from all the wells, 100 μl of SteadyGlo™ luciferase assay reagent (Promega) was added and the resulting mixture left at room temperature for 5 minutes. […] Luminescence was then read in a TopCount™ (Packard) counter. […]

Row | Substance | effect of added soluble protein on the IL-10 enhancement by bead-immobilised Delta1 [1] | inhibition of Notch signalling from Delta beads compared to control [2] | inhibition of Notch signalling from Delta beads, compared with hDelta1-IgG4Fc ([2]; Delta-coated Dynabeads)
1 | hDelta1-IgG4Fc: fusion protein comprising the extracellular domain of human Delta1 fused to the Fc domain of human IgG4 (SEQ ID NO: 5) | inhibited | significant inhibition compared to control | 
2 | hJagged1EGF1&2-IgG4Fc: human jagged1 sequence up to the end of EGF2 (leader, amino terminal, DSL, EGF1+2) fused to the Fc domain of human IgG4 (SEQ ID NO: 10) | inhibited | significant inhibition compared to control | substantially the same inhibition of Notch signalling
